In patent EP4656642A1, “ESTROGEN RECEPTOR PROTEOLYSIS TARGETING CHIMERA COMPOUND AND USE THEREOF” (GAN & LEE PHARM CO., LTD, priority 2023, dated 2024):

Assays:
Assay type in all cases: cell-based
T-47D cells = experiment: Inhibition of cell proliferation in T-47D cells (CCK-8, 6 days); conditions: 6 days of treatment, Table 3
In short: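 Viability read-out was CCK-8 after 6 days of compound treatment (37 °C, 5% CO2) across graded concentrations. Cells were T-47D seeded at 3,000 per well in 1640 medium plus 10% FBS. IC50 was calculated against proliferation.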

MCF-7 cells = experiment: Inhibition of cell proliferation of MCF-7 cells (CCK-8, 9 days); conditions: treated for 9 days, CCK-8 kit (Table 6)
In short: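 Read-out was CCK-8 viability after 9-day continuous exposure (37°C, 5% CO2) of MCF-7 cells plated at 800/well in 10% FBS DMEM across several compound concentrations. Values are proliferation IC50s.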

ERα [1] = biological target: T1, ERα (Homo sapiens, UniProt P03372); experiment: Degradation of ERα in MCF-7 cells (immunoblotting, 4 h)
T1 sequence (P03372 1-595): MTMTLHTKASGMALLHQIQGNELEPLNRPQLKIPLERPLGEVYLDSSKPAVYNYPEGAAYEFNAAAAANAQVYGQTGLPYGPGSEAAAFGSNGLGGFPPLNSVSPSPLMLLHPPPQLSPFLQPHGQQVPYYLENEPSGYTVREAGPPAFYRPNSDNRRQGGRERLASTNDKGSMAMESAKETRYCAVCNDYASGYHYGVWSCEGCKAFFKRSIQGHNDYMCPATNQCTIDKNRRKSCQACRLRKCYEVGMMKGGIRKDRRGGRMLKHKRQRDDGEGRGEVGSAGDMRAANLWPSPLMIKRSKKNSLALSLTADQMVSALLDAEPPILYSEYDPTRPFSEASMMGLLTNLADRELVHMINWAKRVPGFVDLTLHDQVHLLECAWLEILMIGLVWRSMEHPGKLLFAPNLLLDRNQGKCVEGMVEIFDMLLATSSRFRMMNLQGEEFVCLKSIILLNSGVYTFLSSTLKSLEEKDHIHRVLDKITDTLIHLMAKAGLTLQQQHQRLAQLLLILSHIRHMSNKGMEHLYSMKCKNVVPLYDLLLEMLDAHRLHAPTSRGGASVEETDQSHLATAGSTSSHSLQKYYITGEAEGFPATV
In short: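 Degradation rate reflects ERα band intensity, corrected to an internal reference protein, relative to control. Values come from Western blotting of lysates from MCF-7 cells exposed 4 h at 37°C to compounds at final concentrations of 0.15-1000nM.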

ERα [2] = biological target: T1, ERα; experiment: Degradation of ERα in T-47D cells (immunoblotting, 4 h); design: host or cells: T-47D
In short: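 ERα protein levels were assessed by immunoblot of RIPA lysates (with protease inhibitor) after 4 h exposure at 37°C. Compound was added in DMSO to T-47D cells at final concentrations of 0.15-1000 nM.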

SMILES | IC50 (T-47D cells) | IC50 (MCF-7 cells) | Degradation rate (%) of ERα in MCF-7 cells (ERα [1]; 1nM compound) | Degradation rate (%) of ERα in MCF-7 cells (ERα [1]; 10nM compound) | Degradation rate (%) of ERα in T-47D cells (ERα [2]; 1nM compound) | Degradation rate (%) of ERα in T-47D cells (ERα [2]; 10nM compound)
C[C@@H]1Cc2c(ccc3[nH]ncc23)C(c2c(F)cc(N3CC4(CCC(N5CCC6(CC5)COc5c6ccc6c5CN(C5CCC(=O)NC5=O)C6=O)CC4)C3)cc2F)N1CC(F)F (stereo partly drawn) [G21] | 25.1 nM | 8.6 nM | 45% | 57% | 34% | 63%
O=C1CCC(N2Cc3cc4c(cc3C2=O)OC2(CC4)CN(CC3CCN(c4ccc([C@@H]5c6ccc(O)cc6CC[C@@H]5c5ccccc5)cc4)CC3)C2)C(=O)N1 (stereo partly drawn) [H3] | 200 nM | 2410 nM | -20% | -37% | -43% | -56%
O=C1CCC(N2Cc3ccc4c(c3C2=O)OCC2(CCN(CC3CCN(c5ccc([C@@H]6c7ccc(O)cc7CC[C@@H]6c6ccccc6)cc5)CC3)CC2)C4)C(=O)N1 (stereo partly drawn) [H5] | 22.4 nM | 2260 nM | -3% | -12% | 18% | 12%
O=C1CCC(N2Cc3ccc4c(c3C2=O)OC2(CC4)CCN(CC3CCN(c4ccc([C@@H]5c6ccc(O)cc6CC[C@@H]5c5ccccc5)cc4)CC3)CC2)C(=O)N1 (stereo partly drawn) [H7] | 10.4 nM | 330 nM | 12% | -2% | -11% | -15%
O=C1CCC(N2Cc3c(ccc4c3OCC43CCN(CC4CCN(c5ccc([C@@H]6c7ccc(O)cc7CC[C@@H]6c6ccccc6)cc5)CC4)CC3)C2=O)C(=O)N1 (stereo partly drawn) [H8] | 31.9 nM | 27200 nM | -23% | -48% | -20% | -37%
O=C1CCC(N2Cc3c(ccc4c3OCC43CCN(C4CCN(C(=O)c5ccc([C@@H]6c7ccc(O)cc7CC[C@@H]6c6ccccc6)cc5)CC4)CC3)C2=O)C(=O)N1 (stereo partly drawn) [H9] | 594 nM | 5020 nM | -39% | -54% | -3% | -31%
O=C1CCC(N2Cc3cc4c(cc3C2=O)OC2(CC4)CN(C3CCN(C(=O)c4ccc([C@@H]5c6ccc(O)cc6CC[C@@H]5c5ccccc5)cc4)CC3)C2)C(=O)N1 (stereo partly drawn) [H11] | 124 nM | 24100 nM | -39% | -41% | -16% | 8%
O=C1CCC(N2Cc3c(ccc4c3OCC43CCN(C4CCC(Oc5ccc([C@@H]6c7ccc(O)cc7CC[C@@H]6c6ccccc6)cc5)CC4)CC3)C2=O)C(=O)N1 (stereo partly drawn) [H12] | 15.9 nM | 35.5 nM | 4% | 28% | -1% | 11%
O=C1CCC(N2Cc3c(ccc4c3OCC43CCN(C(=O)CC4CCN(c5ccc([C@@H]6c7ccc(O)cc7CC[C@@H]6c6ccccc6)cc5)CC4)CC3)C2=O)C(=O)N1 (stereo partly drawn) [H16] | 5.7 nM | 9770 nM | 9% | 37% | 48% | 69%
O=C1CCC(N2Cc3c(ccc4c3OCC43CCN(C(=O)C4CCC(N5CCN(c6ccc([C@@H]7c8ccc(O)cc8CC[C@@H]7c7ccccc7)cc6)CC5)CC4)CC3)C2=O)C(=O)N1 (stereo partly drawn) [H17] | 1.02 nM | 62.7 nM | 47% | 54% | 61% | 68%
O=C1CCC(N2Cc3c(ccc4c3OCC43CCN(CC(=O)N4CCN(c5ccc([C@@H]6c7ccc(O)cc7CC[C@@H]6c6ccccc6)cc5)CC4)CC3)C2=O)C(=O)N1 (stereo partly drawn) [H18] | 1.55 nM | 7380 nM | 18% | 58% | 69% | 57%
O=C1CCC(N2Cc3c(ccc4c3OCC43CCN(CC(=O)N4CCC5(CCN(c6ccc([C@@H]7c8ccc(O)cc8CC[C@@H]7c7ccccc7)cc6)C5)C4)CC3)C2=O)C(=O)N1 (stereo partly drawn) [H19] | 1.8 nM | 151 nM | 27% | 21% | 39% | 55%
O=C1CCC(N2Cc3c(ccc4c3OCC43CCN(CCN4CCN(c5ccc([C@@H]6c7ccc(O)cc7CC[C@@H]6c6ccccc6)cc5)CC4)CC3)C2=O)C(=O)N1 (stereo partly drawn) [H20] | 1.22 nM | 1320 nM | -18% | -14% | 13% | -14%
O=C1CCC(N2Cc3c(ccc4c3OCC43CCN(C(=O)CN4CC[C@]5(CCN(c6ccc([C@@H]7c8ccc(O)cc8CC[C@@H]7c7ccccc7)cc6)C5)C4)CC3)C2=O)C(=O)N1 (stereo partly drawn) [H21] | 1.02 nM | 163 nM | 18% | 37% | 35% | 65%
O=C1CCC(N2Cc3c(ccc4c3OCC43CCN(C(=O)C4CCN(C5CCN(c6ccc([C@@H]7c8ccc(O)cc8CC[C@@H]7c7ccccc7)cc6)CC5)CC4)CC3)C2=O)C(=O)N1 (stereo partly drawn) [H22] | 1.57 nM | 3.5 nM | 32% | 64% | 56% | 73%
O=C1CCC(N2Cc3c(ccc4c3OCC43CCN(CC(=O)N4CC[C@]5(CCN(c6ccc([C@@H]7c8ccc(O)cc8CC[C@@H]7c7ccccc7)cc6)C5)C4)CC3)C2=O)C(=O)N1 (stereo partly drawn) [H23] | 1.58 nM | 9.19 nM | 44% | 51% | 50% | 68%
O=C1CCC(N2Cc3cc4c(cc3C2=O)OC2(CC4)CN(C3CC4(C3)CC3(CCN(c5ccc([C@@H]6c7ccc(O)cc7CC[C@@H]6c6ccccc6)cc5)CC3)C4)C2)C(=O)N1 (stereo partly drawn) [H25] | 6.02 nM | 1720 nM | -9% | -50% | 23% | 48%
O=C1CCC(N2C(=O)c3ccc4c(c3C2=O)OCC42CCN(C3CCN(C(=O)C4CCN(c5ccc([C@@H]6c7ccc(O)cc7CC[C@@H]6c6ccccc6)cc5)CC4)CC3)CC2)C(=O)N1 (stereo partly drawn) [H27] | 4.65 nM | 800 nM | 11% | 46% | 36% | 78%
